These results are taken from US6849624B2, “Aromatic and heteroaromatic substituted amides” (Hoffmann-La Roche Inc., priority 2001, dated 2005).

Molecules are shown by their SMILES.

Data set [1] has as its target T1, human NK1 receptor (Homo sapiens, UniProt P25103).
T1 construct: expressed in transfected cells; host or cells: CHO cells (Semliki virus expression system)
Nature of the data set: [3H]substance P binding to human NK1 receptor in transfected CHO cells. As to conditions: recombinant human NK1 receptor in CHO cells, [3H]substance P 0.6 nM; read-out: affinity (pKi) for the human NK1 receptor (converted). As for the experimental part:
The affinities of the compounds 2-(3,5-bis-trifluoromethyl-phenyl)-N-[6-(1,1-dioxo-1λ^6-thiomorpholin-4-yl)-4-o-tolyl-pyridin-3-yl]-N-methyl-isobutyramide and 2-(3,5-bis-trifluoromethyl-phenyl)-N-[6-(1,1-dioxo-1λ^6-thiomorpholin-4-yl)-4-(4-fluoro-2-methyl-phenyl)-pyridin-3-yl]-N-methyl-isobutyramide for the human NK1 receptor were evaluated in Chinese Hamster Ovary (CHO) cells transfected with the human NK1 receptor (using the Semliki Virus expression system) and radiolabelled with [^3H]substance P (final concentration 0.6 nM). Binding assays were performed in HEPES buffer (50 mM, pH 7.4) containing BSA (0.04%), leupeptin (8 μg/ml), MnCl2 (3 mM) and phosphoramidon (2 μM). Binding assays consisted of 250 μl of membrane suspension (1.25×10^5 cells/assay tube), […] of buffer of displacing agent and 125 μl of [^3H] substance P. Displacement curves were determined with at least seven concentrations of the compound. The assay tubes were incubated for 60 min at room temperature after which time the tube contents were rapidly filtered under vacuum through GF/C filters presoaked for 60 min with PEI (0.3%) with 2×2 ml washes of HEPES buffer (50 mM, pH 7.4). The radioactivity retained on the filters was measured by scintillation counting. All assays were performed in triplicate in at least 2 separate experiments. […]

Data set [2] concerns the target T1, human NK1 receptor. Nature of the data set: substance P induced Ca2+ influx in CHO cells expressing recombinant human NK1 receptor (FLIPR). In kind it is cell-based. The note with it: increasing concentrations, CHO cells with recombinant human NK1 receptor. The source says:
The activity in vitro was examined by studying its effect on substance P induced Ca^2+ influxes in CHO cells expressing the recombinant human NK1 receptor. In these cells, substance P causes a concentration dependent influx of Ca^2+ which can be measured using FLIPR technology.

Another data set has as its target T2, NK1 receptor (Meriones unguiculatus, UniProt Q5DUB1).
T2 construct: from tissue; host or cells: living gerbils (brain, i.c.v. agonist injection)
Nature of the data set: foot-tapping behavior induced in Gerbils by i.c.v. injection of an NK1 receptor agonist. In kind it is in vivo. As to conditions: Gerbil; for dose calculated to inhibit 50% of the foot-tapping behavior: oral administration; for total plasma concentration required to completely block the foot-tapping behavior: total plasma level. How it is done:
In vivo 2-(3,5-bis-trifluoromethyl-phenyl)-N-[6-(1,1-dioxo-1λ^6-thiomorpholin-4-yl)-4-o-tolyl-pyridin-3-yl]-N-methyl-isobutyramide antagonizes foot-tapping behavior induced in Gerbils with intracerebroventricular (i.c.v.) injections of an NK1 receptor agonist. The dose for this compound calculated to inhibit 50% of the foot-tapping behavior following oral administration was 0.8 mg/kg. […] Similarly, 2-(3,5-bis-trifluoromethyl-phenyl)-N-[6-(1,1-dioxo-1λ^6-thiomorpholin-4-yl)-4-(4-fluoro-2-methyl-phenyl)-pyridin-3-yl]-N-methyl-isobutyramide also antagonized NK1 agonist-induced foot-tapping in Gerbils. The dose for this compound calculated to inhibit 50% of the foot-tapping behavior following oral administration was 0.1 mg/kg. The total plasma levels that are required to completely antagonize this behavior are less than 10 ng/ml.

A short description of data set [3]: pharmacokinetic parameters in rats. The note with it: rat, in vivo; for bioavailability: po; for half-life: read-out: terminal half-life (converted); for Vd: read-out: volume of distribution. The source says:
(§1) The pharmacokinetic parameters of both compounds have been evaluated in both rats and dogs.

The nature of data set [4]: pharmacokinetic parameters in dogs. The note with it: dog, in vivo; for Vd: read-out: volume of distribution.
Description: as §1

T2 sequence (Q5DUB1 whole entry): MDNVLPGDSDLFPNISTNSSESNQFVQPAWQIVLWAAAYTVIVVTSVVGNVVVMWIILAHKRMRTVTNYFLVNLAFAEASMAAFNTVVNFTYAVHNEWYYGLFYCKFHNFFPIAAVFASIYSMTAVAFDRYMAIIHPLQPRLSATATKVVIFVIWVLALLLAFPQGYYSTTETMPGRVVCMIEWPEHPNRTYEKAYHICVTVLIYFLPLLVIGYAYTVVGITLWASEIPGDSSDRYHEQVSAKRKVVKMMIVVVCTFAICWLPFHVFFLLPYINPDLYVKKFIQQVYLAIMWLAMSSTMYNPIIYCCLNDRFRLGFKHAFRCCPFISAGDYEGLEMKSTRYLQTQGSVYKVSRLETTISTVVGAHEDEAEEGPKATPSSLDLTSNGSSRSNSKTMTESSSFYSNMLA
T1 sequence (P25103 whole entry): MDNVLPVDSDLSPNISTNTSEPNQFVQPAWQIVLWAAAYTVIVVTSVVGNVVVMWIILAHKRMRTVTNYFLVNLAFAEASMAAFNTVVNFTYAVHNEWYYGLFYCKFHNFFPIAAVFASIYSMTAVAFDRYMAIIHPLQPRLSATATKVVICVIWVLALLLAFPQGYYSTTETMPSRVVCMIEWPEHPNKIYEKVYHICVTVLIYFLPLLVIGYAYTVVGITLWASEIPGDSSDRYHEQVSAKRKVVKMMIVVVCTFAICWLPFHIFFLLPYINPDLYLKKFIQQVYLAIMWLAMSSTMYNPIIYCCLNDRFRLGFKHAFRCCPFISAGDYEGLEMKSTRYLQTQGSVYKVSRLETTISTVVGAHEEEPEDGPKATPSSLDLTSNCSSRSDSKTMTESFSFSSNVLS

`Cc1ccccc1-c1cc(N2CCS(=O)(=O)CC2)ncc1N(C)C(=O)C(C)(C)c1cc(C(F)(F)F)cc(C(F)(F)F)c1` [2-(3,5-Bis-trifluoromethyl-phenyl)-N-[6-(1,1-dioxo-1λ^6-thiomorpholin-4-yl)-4-o-tolyl-pyridin-3-yl]-N-methyl-isobutyramide] registered a melting point of 200 to 201 °C. Moreover, the Ki on human NK1 receptor [1] is 1.26 nM. The “effect on substance P induced Ca2+ influx” value on human NK1 receptor [2] was “inhibited the substance P induced Ca^2+ influx”. Besides, on NK1 receptor, the “dose calculated to inhibit 50% of the foot-tapping behavior” value is on record as 0.8 mg/kg and the “total plasma concentration required to completely block the foot-tapping behavior” value came to 10 ng/mL. For the same compound, in data set [3], the clearance was determined as 4.7 mL/min/kg, the bioavailability is 18%, the half-life is 9 h and the Vd turned out to be 4 L/kg. Moreover, in data set [4], the clearance was 5 mL/min/kg, the half-life is 8 h and the Vd came to 4 L/kg.
For `Cc1cc(F)ccc1-c1cc(N2CCS(=O)(=O)CC2)ncc1N(C)C(=O)C(C)(C)c1cc(C(F)(F)F)cc(C(F)(F)F)c1` [2-(3,5-Bis-trifluoromethyl-phenyl)-N-[6-(1,1-dioxo-1λ^6-thiomorpholin-4-yl)-4-(4-fluoro-2-methyl-phenyl)-pyridin-3-yl]-N-methyl-isobutyramide], at human NK1 receptor [1], the Ki was 0.316 nM. The “effect on substance P induced Ca2+ influx” value on human NK1 receptor [2] is reported as “inhibited the substance P induced Ca^2+ influx”. Further, at NK1 receptor, the “dose calculated to inhibit 50% of the foot-tapping behavior” value is given as 0.1 mg/kg and the “total plasma concentration required to completely block the foot-tapping behavior” value was “less than 10 ng/ml”. In addition, in data set [3], the clearance fell in the range of 0.3 to 1.2 mL/min/kg, the bioavailability stood at 61%, the half-life was 21 h and the Vd worked out at 0.7 L/kg. Besides, in data set [4], the clearance was found to be 1.4 mL/min/kg, the half-life is 56 h and the Vd was determined as 1.5 L/kg.

The clearance is the rate of elimination divided by the concentration. A lower clearance goes with a low capacity for elimination. One may read the bioavailability as the share of a dose that reaches the circulation, judged against a reference dose that is usually intravenous. A lower bioavailability goes with little systemic uptake. Broadly, the half-life is the time in which the quantity being followed falls by half. The term melting point denotes the temperature of the solid-liquid transition.
